Measurements reported in US8304452B2, “Radical scavenger and active oxygen eliminating agent” (InBiotex Inc., priority 2005, dated 2012).

How the values were obtained:
[1] = tested on: chicken egg chorioallantois; assay: Vascularization-suppressing action, chicken egg chorioallantois (Example 10); assay type: in vivo; details: 10 μL in 1% methylcellulose inside ring, 37° C., 48 hours; FIG. 10
Description: A ring of a 3-mm diameter was placed on a chicken egg chorioallantois on day 5 after oviposition. 10 μL of the test substance diluted with 1% methylcellulose was added inside the ring. After incubation at 37° C. for 48 hours, fat emulsion was injected into the chorioallantois. A part from which the ring was displaced was photographed. Using an image analysis software (Kurabo Industries, Ltd.), the vascular area was measured.

[2] = tested on: galactosemic cataract model; assay: Galactosemic cataract model, eye drops (Example 4); assay type: in vivo, Crj:CD(SD) IGS rats; parameters: key to Pathological findings of lens: Cataract / Pathological findings of lens: Vacuolation of lens epithelium / Pathological findings of lens: Alignment irregularity of lens cortical fiber / Pathological findings of lens: Vacuole structure in outer cortex: −: no change; ±: very slight change; +: slight change; 2+: medium change; 3+: significant change; details: for severity of cataract (Cotlier standard score): four times per day, n=10, mean±standard deviation; for Pathological findings of lens: Alignment irregularity of lens cortical fiber / Pathological findings of lens: Cataract / Pathological findings of lens: Vacuolation of lens epithelium / Pathological findings of lens: Vacuole structure in outer cortex: eye balls resected 28 days later; for cases with severe sugar cataract: until day 28 of eye dropping
Description: 352 mg of a test substance was weighed and then dissolved in 1.1 mL of 1N NaOH (1 mol/L sodium hydroxide; manufactured by Wako Pure Chemical, Co., Ltd.). After dissolution, it was verified with a pH paper (Duotest under trade name; MACHEREY-NAGEL) that the pH was within an acceptable range (5 to 8). Subsequently, the resulting solution was divided in each volume of 0.03 mL into 30 2-ml tubes (28 such tubes for four tests per day for 7 days+2 such tubes for spare). These were immediately frozen in liquid nitrogen, and stored under freezing (preset at −85° C. within an acceptable range of −90 to −75° C.)/dark conditions. The solutions under storage were defined as stock solution at 320 mg/mL. The stock solutions could be used within 8 days after the preparation. The stock solutions outside the 8-day period after the preparation were disposed. Before eye dropping, the following preparation was done. After the tubes of the stock solution at 320 mg/mL were back to ambient temperature, 0.93 mL of physiological saline was directly added to the tubes for dilution. After preparative dilution, it was verified with a pH paper that the pH of the diluted solutions were within an acceptable range (5 to 8). The resulting eye drop was defined as 1.0% eye drop for use in administration. 0.09 mL of the 1.0% eye drop was divided in a 2-mL tube, to which 0.81 mL of physiological saline was directly added for dilution. Subsequently, it was verified with a pH paper that the pH of the diluted solution was within an acceptable range (5 to 8). The resulting eye drop was defined as 0.1% eye drop, for use in administration. Herein, eye drops of pH outside the acceptable range were never used. The 1.0% eye drop and the 0.1% eye drop practically used for administration were at pH 5.2 to 8.0 and pH 6.2 to 7.4, respectively. As the medium, physiological saline as the control substance was used as it was. Male Crj:CD(SD) IGS rats (SPF) of age 3 weeks were subjected to a 5-day quarantine period and then to an 8-day acclimatization period. By the random extraction method, the rats were grouped in 3 groups, where each group consisted of 10 rats, in a manner such that the average body weight and deviation in each group might be almost equal. After grouping, the rats were fed ad libitum with a powdery feed containing galactose at 50% [a powder feed (Lot No. 050107) of a mixture at equal amounts of CRF-1 powder feed (Lot No. 041104; manufacturer: Oriental Yeast Co., Ltd.) and galactose (D-galactose, Lot No. QYG0223, manufacturer: Yoneyama Pharmaceutical Industry, Co. Ltd.); the mixture was prepared by Oriental Yeast Co., Ltd.; abbreviated as {galactose feed}] hereinafter], as placed in a powder feeder. Additionally, the rats were fed ad libitum with drinking water. The three groups were defined as (A) medium control group, (B) 0.1% 5-S-GAD eye drop group, and (C) 1.0% 5-S-GAD eye drop group for dosing. The administration route was eye dropping as a clinically prospective route. The number of eye dropping per day was four times, while the interval between eye droppings was about 2 hours. The eye dropping was done around 9:30 am (9:00 am to 10:00 am as the defined time period), around 11:30 (11:00 am to 12:00 am as the defined time period), around 13:30 (13:00 pm to 14:00 pm as the defined time period) and around 15:30 pm (15:00 pm to 16:00 pm as the defined time period). Eye dropping was done over 28 days. On day 1, day 7, day 14, day 21 and day 28, ophthalmologic examinations were done about 30 minutes after each last eye dropping. The observation method is as follows. Right eye with eye drop application and left eye without any treatment were observed of their lenses, using a slit lamp (SL-15, Kowa Company, Ltd.). The severity of cataract was evaluated, according to the Cotlier standard (see FIG. 1 in Arch Ophthalmol., (67) 476-82, 1962, which was entitled ‘Development of galactose cataract in the rat, showing biomicroscopic front and slit view’). […]

[3] = Superoxide anion-scavenging activity, DMPO spin trapping ESR (Example 8); assay type: biochemical; details: FIG. 8
Description: In a 50 mM phosphate buffer (pH 7.8), 500 μM xanthine and 75 mU/mL xanthine oxidase reacted together. The generated superoxide anion (O^2−) was assayed with a spin trapping agent (DMPO) by the electron spin resonance method (ESR). The resulting signal intensity (I) was normalized with the signal intensity of the inner standard manganese (S). The resulting value was determined as the relative intensity (RI), for comparison between the value in case of the addition of the test substance and the value in case of the addition of PBS. The ESR was measured under the following conditions. MicroWave Powder: 8 mW; Field: 335±5 mT; Scan Time: 2 min; Mod.: 0.1 mT; Amplitude:×125-400; Time Constant: 0.03 sec.

## NCCC(=O)N[C@@H](Cc1cc(O)c(O)c(SC[C@H](NC(=O)CC[C@H](N)C(=O)O)C(=O)NCC(=O)O)c1)C(=O)O [5-S-GAD, N-β-alanyl-5-S-glutathionyl-3,4-dihydroxyphenylalanine]
[1]
  suppression of vascularization (vascular area): suppressed vascularization significantly
[2]; 0.1% and 1.0% eye drop groups, before eye dropping and about one hour after the last eye dropping during the eye dropping period
  abnormality of general states: no abnormality of their general states was observed
[2]; 0.1% eye drop, on day 1
  severity of cataract (Cotlier standard score): 0 ± 0
[2]; 0.1% eye drop, on day 7
  severity of cataract (Cotlier standard score): 1.9 ± 0.1
[2]; 0.1% eye drop, on day 14
  severity of cataract (Cotlier standard score): 2.5 ± 0.1
[2]; 0.1% eye drop, on day 21
  severity of cataract (Cotlier standard score): 3.6 ± 0.1
[2]; 0.1% eye drop, on day 28
  severity of cataract (Cotlier standard score): 3.9 ± 0.1
[2]; 0.1% eye drop
  Pathological findings of lens: Alignment irregularity of lens cortical fiber: +
  Pathological findings of lens: Cataract: 2+
  Pathological findings of lens: Vacuolation of lens epithelium: ±
  Pathological findings of lens: Vacuole structure in outer cortex: ±
  cases with severe sugar cataract: no case with severe sugar cataract occurred until day 28
[2]; 1.0% eye drop, on day 1
  severity of cataract (Cotlier standard score): 0 ± 0
[2]; 1.0% eye drop, on day 7
  severity of cataract (Cotlier standard score): 1.8 ± 0.1
[2]; 1.0% eye drop, on day 14
  severity of cataract (Cotlier standard score): 2.4 ± 0.1
[2]; 1.0% eye drop, on day 21
  severity of cataract (Cotlier standard score): 3.4 ± 0.1
[2]; 1.0% eye drop, on day 28
  severity of cataract (Cotlier standard score): 3.8 ± 0.1
[2]; 1.0% eye drop
  Pathological findings of lens: Alignment irregularity of lens cortical fiber: +
  Pathological findings of lens: Cataract: 2+
  Pathological findings of lens: Vacuolation of lens epithelium: −
  Pathological findings of lens: Vacuole structure in outer cortex: ±
  cases with severe sugar cataract: No case with severe sugar cataract emerged until day 28
[2]; pathological findings, day 28
  pathological effect in the galactosemic rat cataract model (in words): apparent ameliorating effect pathologically
[3]
  superoxide anion (O^2−)-scavenging action compared with TEMPOL (in words): excellent superoxide anion (O^2−)-scavenging action compared with TEMPOL
